{
  "source": "patent US20240327439A1",
  "about": "“PHARMACOLOGICAL AGENTS FOR PREVENTING AND TREATING CATARACTS AND PRESBYOPIA EYE DISEASES” (Plex Pharmaceuticals, Inc., priority 2021, published 2024)",
  "system": "Bovine lens lysates",
  "assay": "Prevention of UVC/H2O2-induced aggregation (opacification) of bovine lens extracts",
  "assay_type": "biochemical",
  "conditions": "bovine lens lysates 2 mg/ml, various concentrations of compound, UV-irradiated, vs vehicle 0.5% DMSO",
  "description": "Bovine lens lysates (2 mg/ml, 50 μl) were incubated with various concentrations of CAP1160 (structure shown below) or a vehicle (0.5% DMSO), and then left unexposed (no exposure) or exposed to UV (UV-irradiated). At various time points, wells-containing bovine lens lysates were pictured and the corresponding absorbance at 600 nm (A600) was measured. Representative brightfield images of wells taken 7 min after initial UV exposure (FIG. 1A) and corresponding A600 (FIG. 1B).",
  "data": [
    {"smiles": "Cc1ccc(C(=O)c2cc(O)c(O)c([N+](=O)[O-])c2)cc1", "note": "[CAP1160]", "values": [
      {"measurement": "opacification of bovine lens protein lysates induced by UV irradiation (absorbance at 600 nm, brightfield images)", "result": "delays, in a dose-dependent manner, the opacification"}
    ]}
  ]
}
